In patent publication US12064413B2, “Methods of treating melanoma with S-equol” (The Board of Regents of the University of Texas System, priority 2018, dated 2024):
“Also recorded” adds a separate entry of the source. Read-outs that look alike come from different tables or passages of the source.

Assays:
rat hippocampal neurons = conditions: cited from earlier work
melanoma = experiment: Pilot biomarker clinical study of Ki67 in melanoma subjects (Example 7); assay type: in vivo, human; conditions: oral S-equol 50 mg twice daily for 10-21 days; 20 subjects with melanoma
Protocol: A pilot biomarker clinical study is performed in 20 subjects with documented melanoma to determine the effect of the ERβ agonist S-equol on Ki67 an indicator of tumor cell proliferation. Tumor cell proliferation is measured by immunohistological staining for Ki-67. Ki-67 is encoded by the gene MKI67 gene and is required to maintain individual mitotic chromosomes dispersed in the cytoplasm following nuclear envelope disassembly. Measuring the fraction of Ki-67-positive cells in a tumor is known to be a reliable parameter for assessing cancer patient prognosis. Subjects with TNBC are known to have very high levels of Ki67.
Patients enrolled in the study receive a history, physical, laboratory assessment, radiological imaging, and diagnostic biopsies. Immunohistochemistry (IHC) of Ki67 (proliferation marker), total ERβ, and pY36-ERβ (phosphorylated ERβ), B7H1 (also known as PDL-1) and MIA and S100B are conducted using core needle biopsy tissue samples prior to treatment. Patients are given oral S-equol 50 mg, twice daily for approximately two weeks (10-21 days) prior to the scheduled oncologic surgeries or start of primary systemic therapy. […]
A standard procedure for acquiring core biopsy is utilized for determining melanoma prior to enrollment. […] The tissue samples are sent for staining of total and pY36, ERβ and Ki67, and analyzed. […]

cytochrome oxidase (COX) = conditions: brains from ovariectomized mice; cited from earlier work
B16 cells = experiment: B16 tumor growth in mice with daily subcutaneous S-equol (Example 6); assay type: in vivo; conditions: S-equol 20 or 60 mg/kg per day s.c. vs PBS vehicle; start at tumor mass 50 to 80 mm^3
Protocol: Further work in a preclinical animal model supports the notion of using S-cquol to treat melanoma. In immunocompromised mouse experiments, using B16, a murine tumor cell line know to be useful to study human melanoma metastasis and solid tumor formation, growth of tumors is suppressed with S-equol treatment compared to control. 0.5×10^6 B16 cells are injected into normal BL mice. When the tumor masses reach 50 to 80 mm^3 (about one week after the inoculation), the mice are given daily subcutaneous injections of S-equol (20 or 60 mg/kg per day) or PBS as a vehicle control. Tumor development is followed by caliper measurements along two orthogonal axes: length (L) and width (W) and volume (V) is estimated by the formula V=[L×(W^2)]/2. Tumors harvested from mice are fixed in 10% neutral-buffered formalin, dehydrated, embedded in paraffin, and sectioned at 3 μm thickness. Representative tumor sections from vehicle control and S-equol-treated mice are tested for Ki-67 expression to assess cell proliferation, and for ERβ pY36. Statistical significance in the experiments is assessed by two-tailed Student's t test. In all assays, p<0.05 is considered statistically significant.

[1] = system: B16 melanoma tumor cell line; experiment: B16 melanoma tumor challenge in mice, S-equol and anti-PD-1 antibody alone or combined; assay type: in vivo; conditions: for tumor volume: anti-PD-1 250 μg every 3 days i.p., S-equol 50 mg/kg per day oral gavage
Protocol: FIG. 4. A schema for combination therapy. Mice were administered one of: (1) vehicle+rat IgG2a; (2)S-equol+rat IgG2a; (3) vehicle+anti-PD-1 antibody; or (4)S-equol+anti-PD-1 antibody. Mice receiving anti-PD-1 antibody were given 250 μg every 3 days, intraperitoneally, and mice receiving S-equol were given 50 mg/kg per day by oral gavage. Treatment started 7 days after tumor challenge with B16 melanoma.
Melanoma cell line B16 was tested to determine the effects of a PD-1 inhibitor, S-equol and a combination of the two therapies on tumor growth. This experimental design includes four arms: (1) controls, (2) αPD-1, (3)S-cquol, and (4) αPD-1+S-equol (FIG. 4) by injecting into mice 5×10^5 cells subcutaneously. Antibodies were administered α-PD-1: 250 μg/mice by i.p. injection every 3 days and S-equol was administered at 50 mg/kg/day by oral gavage. Treatment began 7 day after tumor challenge. Tumor growth trajectories were compared within treated mice using a repeated measures linear mixed model. The primary outcome was the logarithm of the tumor size, and the test statistic is the treatment X time interaction. Tumors were measured about 10 times. The number of recipient mice use used in the studies (n=6 per group) was based on the above study.

[2] = system: triple negative breast cancer (TNBC); conditions: cited from earlier work

Q: What does the source list for Oc1ccc([C@H]2COc3cc(O)ccc3C2)cc1 [S-equol]?
A: respiratory and maximal glycolysis fluxes (rat hippocampal neurons): increase; Ki67 (tumor cell proliferation, IHC) pre- vs post-treatment (melanoma): measurable decrease; also recorded: measurable decline; COX1 protein levels (cytochrome oxidase (COX)): increase; cytochrome oxidase (COX) activity (cytochrome oxidase (COX)): increase; growth of tumors (B16 cells): suppressed; effect on anticancer immunotherapy ([1]; Example 4, FIGS. 6-9, n=6 per group): boost anticancer immunotherapy; tumor volume ([1]; FIG. 6, over 12 days post-challenge): reduce tumor volume compared to control; tumor volume ([1]; FIG. 7, over 19 days post-challenge): reduce tumor volume compared to control; tumor weight ([1]; FIG. 8A, mice challenged with B16 melanoma): reduce tumor weight compared to control; tumor volume ([1]; FIG. 9A, over 16 days (title) / 12 days post-challenge): reduce tumor volume compared to control

Q: With atezolizumab as the molecule, how does the response rate ([2]; 21 evaluable, PD-L1 expressing TNBC tumors) read?
A: 19%

Q: For avelumab, which response rate ([2]; 168 TNBC tumors unselected for PD-L1 expression) is on record?
A: 8.6%

Q: Which response rate ([2]; Phase 1 study, 27 women with heavily pretreated, chemotherapy resistant, metastatic TNBC that expressed PD-L1) does the source give for pembrolizumab here?
A: 18.4%
